{"source": "patent US9302967B2", "about": "“Substituted cathechols as inhibitors of IL-4 and IL-5 for the treatment of bronchial asthma” (Council of Scientific & Industrial Research, priority 2011, dated 2016)", "assay": "14 d acute oral toxicity: immunotoxicity (EPA guideline 1998)", "type": "in vivo, mice", "details": "for Bone marrow cell viability % / Lymph node lymphocyte viability % (pooled) / Splenocyte viability %: 14 d acute", "procedure": "14 d acute oral toxicity of compound 1 of formula I was performed. […]\nImmunotoxicity in mice was performed in accordance to EPA guideline (1998). […] Humoral immunity was measured in terms of HA titer and plaque forming cell assay. […] Cell mediated immunity was measured in terms of % increase in paw volume in mice sensitized with SRBC."}
{"smiles": "C=CCc1ccc(O)c(O)c1", "note": "[Compound 1, 4-allyl-benzene-1,2-diol]", "values": [{"measurement": "Bone marrow cell viability %", "setting": "12 mg/kg bw", "value": ">98", "unit": "%"}, {"measurement": "Lymph node lymphocyte viability % (pooled)", "setting": "12 mg/kg bw", "value": ">98", "unit": "%"}, {"measurement": "Splenocyte viability %", "setting": "12 mg/kg bw", "value": "97.69 ± 0.96", "unit": "%"}, {"measurement": "Bone marrow cell viability %", "setting": "23 mg/kg bw", "value": ">98", "unit": "%"}, {"measurement": "Lymph node lymphocyte viability % (pooled)", "setting": "23 mg/kg bw", "value": ">98", "unit": "%"}, {"measurement": "Splenocyte viability %", "setting": "23 mg/kg bw", "value": "97.64 ± 0.73", "unit": "%"}, {"measurement": "Bone marrow cell viability %", "setting": "47 mg/kg bw", "value": ">98", "unit": "%"}, {"measurement": "Lymph node lymphocyte viability % (pooled)", "setting": "47 mg/kg bw", "value": ">98", "unit": "%"}, {"measurement": "Splenocyte viability %", "setting": "47 mg/kg bw", "value": "98.25 ± 0.92", "unit": "%"}, {"measurement": "DTH response (cell mediated immunity)", "setting": "mouse, in vivo", "value": "insignificant changes in the DTH response"}, {"measurement": "viability of bone marrow cells, splenocyte and lymph node lymphocyte (trypan blue)", "setting": "mouse, in vivo", "value": "No significant changes"}, {"measurement": "HA tire (reciprocal of the last dilution showing positive reaction)", "setting": "mouse, in vivo, 12 mg/kg", "value": 2560}, {"measurement": "PFC", "setting": "mouse, in vivo, 12 mg/kg", "value": "10333 ± 3008", "unit": "per 10^6lymphocytes"}, {"measurement": "PFC and HA titre against SRBC antigen", "setting": "mouse, in vivo, 21 mg/kg", "value": "did not show any significant change"}, {"measurement": "DTH response (%)", "setting": "mouse, in vivo, 23 mg/kg", "value": "19.24 ± 10.5", "unit": "%"}, {"measurement": "HA tire (reciprocal of the last dilution showing positive reaction)", "setting": "mouse, in vivo, 23 mg/kg", "value": 2560}, {"measurement": "PFC", "setting": "mouse, in vivo, 23 mg/kg", "value": "11633 ± 3636", "unit": "per 10^6lymphocytes"}, {"measurement": "DTH response (%)", "setting": "mouse, in vivo, 47 mg/kg", "value": "17.75 ± 9.8", "unit": "%"}, {"measurement": "HA tire (reciprocal of the last dilution showing positive reaction)", "setting": "mouse, in vivo, 47 mg/kg", "value": 1280}, {"measurement": "PFC", "setting": "mouse, in vivo, 47 mg/kg", "value": "2800 ± 1288", "unit": "per 10^6lymphocytes"}]}
